Measurements as given in patent US20250092065A1, “2-(INDAZOL-5-YL)-6-(PIPERIDIN-4-YL)-1,7-NAPHTHYRIDINE DERIVATIVES AND RELATED COMPOUNDS AS MODULATORS FOR SPLICING NUCLEIC ACIDS AND FOR THE TREATMENT OF PROLIFERATIVE DISEASES” (REMIX THERAPEUTICS INC., priority 2022, published 2025).
Like-named read-outs stand apart in the source and are kept apart here.

Experiments:
[1] = test system: Target C; experiment: HiBiT protein abundance assay, Target C (K562 HiBiT knock-in); type: cell-based, human; conditions: HiBiT knock-in K562 cells, 24 hours, top dose 10 μM
Outline: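 K562 HiBiT knock-in cells (10000/well) were treated 24 h at 37° C with a 10-point 3-fold dilution series (top 10 μM final, ≤0.25% DMSO). HiBiT luminescence was read after lytic LgBiT detection. Percent response used unmodified K562 and DMSO-treated knock-in controls, and IC50 came from a four-parameter fit at 50% of untreated.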

[2] = test system: MYB mRNA; experiment: RT-qPCR splicing assay, MYB mRNA canonical (CJ) and alternative (AJ) junction; type: cell-based, human; conditions: Homo sapiens; for AC50: MYB alternative junction mRNA, read-out: MYB AJ (increase in AJ mRNA, AC50)
Outline: (§1)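 A673 or K562 cells treated 24 h at 37 °C with an 11-point 3-fold dilution series (top 10 uM, DMSO ≤0.25%). Lysates went directly to one-step RT-qPCR quantifying canonical (CJ) and alternative-exon (AJ) junctions, normalized to GAPDH, GUSB or PPIA. Values from ΔΔCt versus DMSO, RQ = 2^(−ΔΔCt), expressed as percentage response.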

[3] = test system: SMN2 mRNA; experiment: RT-qPCR splicing assay, SMN2 mRNA; type: cell-based, human; conditions: Homo sapiens, canonical junction qPCR panel, Table 4; read-out: SMN2 IC50 (decrease in CJ mRNA levels)
Outline: as §1

[4] = test system: K562 cells; experiment: Cell Titer Glo 2.0 cell viability (toxicity) assay, K562; conditions: 500 cells/well, 72 hours
[5] = test system: HTT; experiment: HiBiT protein abundance assay, HTT (K562 HiBiT knock-in); type: cell-based, human; conditions: HiBiT knock-in K562 cells, 24 hours, top dose 10 μM
Outline: (§2)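 K562 HiBiT knock-in, 24 h, 37 °C, top 10 μM final, 3-fold ×10, DMSO ≤0.25%. Lytic HiBiT luminescence; PC = parental K562, NC = DMSO; 4PL IC50.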

[6] = test system: MYB; experiment: HiBiT protein abundance assay, MYB (K562 HiBiT knock-in); type: cell-based, human; conditions: HiBiT knock-in K562 cells, 24 hours, top dose 10 μM
Outline: as §2

[7] = MYB canonical junction mRNA, RT-qPCR, read-out: MYB CJ (decrease in CJ mRNA levels, IC50)
[8] = canonical junction qPCR panel, Table 4, read-out: MYB IC50 (decrease in CJ mRNA levels)

IC50 [1] [µM] | IC50 [2, 7] [µM] | IC50 [2, 8] [µM] | IC50 [3] [µM] | IC50 [5] [µM] | IC50 [6] [µM] | Structure (SMILES) | AC50 ([2]; RT-qPCR) [µM] | Effect of Exemplary Compounds on Cell Viability, K562 [4]
< 0.1 | < 0.1 | < 0.1 | < 0.1 | < 0.1 | < 0.1 | Cn1cc2cc(-c3ccc4nc(N5CCC(NC6CCC6)C5)ccc4n3)c(O)c(F)c2n1 (stereo not drawn) [Compound 315, 5-{6-[3-(cyclobutylamino)pyrrolidin-1-yl]-1,5-naphthyridin-2-yl}-7-fluoro-2-methylindazol-6-ol] | < 0.1 | A (A represents <100 nM)
< 0.1 | < 0.1 | < 0.1 | < 0.1 | < 0.1 | < 0.1 | Cc1c(O)c(-c2ccc3nc(N4CCC(NC(C)C)C4)ccc3n2)cc2cn(C)nc12 (stereo not drawn) [Compound 318, 5-{6-[3-(isopropylamino)pyrrolidin-1-yl]-1,5-naphthyridin-2-yl}-2,7-dimethylindazol-6-ol] | < 0.1 | A (A represents <100 nM)
< 0.1 | < 0.1 | < 0.1 | < 0.1 | < 0.1 | < 0.1 | Cc1c(O)c(-c2ccc3nc(N4CC[C@H](NC(C)C)C4)ccc3n2)cc2cn(C)nc12 [Compound 320] | < 0.1 | B (B represents 100-1000 nM)
< 0.1 | < 0.1 | < 0.1 | < 0.1 | < 0.1 | < 0.1 | Cc1nc2c(F)c(O)c(-c3ccc4nc(N5CCC(NC6(C)CC6)C5)ccc4n3)cc2o1 (stereo not drawn) [Compound 325, 4-fluoro-2-methyl-6-(6-{3-[(1-methylcyclopropyl)amino]pyrrolidin-1-yl}-1,5-naphthyridin-2-yl)-1,3-benzoxazol-5-ol] | < 0.1 | B (B represents 100-1000 nM)
< 0.1 | < 0.1 | < 0.1 | < 0.1 | < 0.1 | < 0.1 | Cc1nc2c(F)c(O)c(-c3ccc4nc(N5CCC(NC(C)C)C5)ccc4n3)cc2o1 (stereo not drawn) [Compound 328, 4-fluoro-6-{6-[3-(isopropylamino)pyrrolidin-1-yl]-1,5-naphthyridin-2-yl}-2-methyl-1,3-benzoxazol-5-ol] | < 0.1 | A (A represents <100 nM)
0.1 to 1 | < 0.1 | < 0.1 | < 0.1 | 0.1 to 1 | 0.1 to 1 | CN[C@@H]1CCN(c2ccc3nc(-c4cc(F)c5nc(C)cn5c4)ncc3n2)C1 [Compound 331, (3R)-1-(2-{8-fluoro-2-methylimidazo[1,2-a]pyridin-6-yl}pyrido[3,2-d]pyrimidin-6-yl)-N-methylpyrrolidin-3-amine] | 0.1 to 1 | B (B represents 100-1000 nM)
0.1 to 1 | 0.1 to 1 | 0.1 to 1 | < 0.1 | 0.1 to 1 | 0.1 to 1 | CN[C@H]1CCN(c2ccc3nc(-c4cc(F)c5nc(C)cn5c4)ncc3n2)C1 [Compound 332, (S)-1-(2-(8-fluoro-2-methylimidazo[1,2-a]pyridin-6-yl)pyrido[3,2-d]pyrimidin-6-yl)-N-methylpyrrolidin-3-amine] | 0.1 to 1 | B (B represents 100-1000 nM)
0.1 to 1 | 0.1 to 1 | 0.1 to 1 | 0.1 to 1 | 0.1 to 1 | 0.1 to 1 | CC(C)(C)NC1CCN(c2ccc3nc(-c4cc5oc(C6CC6)nc5cc4O)ccc3n2)C1 (stereo not drawn) [Compound 333, 6-{6-[3-(tert-butylamino)pyrrolidin-1-yl]-1,5-naphthyridin-2-yl}-2-cyclopropyl-1,3-benzoxazol-5-ol] | 0.1 to 1 | B (B represents 100-1000 nM)
0.1 to 1 | 0.1 to 1 | 0.1 to 1 | 0.1 to 1 | 0.1 to 1 | 0.1 to 1 | COCc1nc2cc(O)c(-c3ccc4nc(N5CCC(NC(C)(C)C)C5)ccc4n3)cc2o1 (stereo not drawn) [Compound 334, 6-{6-[3-(tert-butylamino)pyrrolidin-1-yl]-1,5-naphthyridin-2-yl}-2-(methoxymethyl)-1,3-benzoxazol-5-ol] | 0.1 to 1 | B (B represents 100-1000 nM)
1 to 10 | 1 to 10 | 1 to 10 | 1 to 10 | 1 to 10 | 1 to 10 | COc1cc2nc(C3COC3)oc2cc1-c1ccc2nc(N3CCC(NC(C)(C)C)C3)ccc2n1 (stereo not drawn) [Compound 335] | 1 to 10 | C (C represents 1000-9999 nM)
< 0.1 | 0.1 to 1 | 0.1 to 1 | < 0.1 | < 0.1 | < 0.1 | CC(C)(C)NC1CCN(c2ccc3nc(-c4cc5oc(CO)nc5cc4O)ccc3n2)C1 (stereo not drawn) [Compound 336, 6-{6-[3-(tert-butylamino)pyrrolidin-1-yl]-1,5-naphthyridin-2-yl}-2-(hydroxymethyl)-1,3-benzoxazol-5-ol] | 0.1 to 1 | A (A represents <100 nM)
0.1 to 1 | < 0.1 | < 0.1 | < 0.1 | 0.1 to 1 | < 0.1 | CNC1CCN(c2ccc3nc(-c4cc5cn(C)nc5c(C)c4O)ncc3n2)C1 (stereo not drawn) [Compound 337, 2,7-dimethyl-5-{6-[3-(methylamino)pyrrolidin-1-yl]pyrido[3,2-d]pyrimidin-2-yl}indazol-6-ol] | < 0.1 | A (A represents <100 nM)
0.1 to 1 | < 0.1 | < 0.1 | < 0.1 | 0.1 to 1 | < 0.1 | Cc1c(O)c(-c2ncc3nc(N4CCNCC4)ccc3n2)cc2cn(C)nc12 [Compound 338, 2,7-dimethyl-5-[6-(piperazin-1-yl)pyrido[3,2-d]pyrimidin-2-yl]indazol-6-ol] | 0.1 to 1 | B (B represents 100-1000 nM)
0.1 to 1 | 0.1 to 1 | 0.1 to 1 | 0.1 to 1 | 0.1 to 1 | 0.1 to 1 | Cc1nc2cc(O)c(-c3ccc4nc(N5CCC(NC(C)(C)C)C5)ccc4n3)cc2n1C (stereo not drawn) [Compound 339, 6-{6-[3-(tert-butylamino)pyrrolidin-1-yl]-1,5-naphthyridin-2-yl}-1,2-dimethyl-1,3-benzodiazol-5-ol] | 0.1 to 1 | B (B represents 100-1000 nM)
0.1 to 1 | 0.1 to 1 | 0.1 to 1 | 0.1 to 1 | 0.1 to 1 | 0.1 to 1 | Cc1nc2cc(-c3ccc4nc(N5CCC(NC(C)(C)C)C5)ccc4n3)c(O)cc2n1C (stereo not drawn) [Compound 340, 6-{6-[3-(tert-butylamino)pyrrolidin-1-yl]-1,5-naphthyridin-2-yl}-2,3-dimethyl-1,3-benzodiazol-5-ol] | 0.1 to 1 | A (A represents <100 nM)
